The source made the active and inactive calls.
Experiments:
[1] = C. albicans growth with fluconazole, confirmation, fluorescence, retest (AID 2467); assay type: functional, cell-based
[2] = NIH-3T3 fibroblast cytotoxicity, dose response, cytotoxicity control, cell-based, fluorescence, Alamar Blue, secondary assay (AID 2327); assay type: functional;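 also: NIH-3T3 mouse fibroblasts cultured with fluconazole at 8 µg/mL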
[3] = target: T1, Serine/threonine-protein phosphatase (Candida dubliniensis (strain CD36 / CBS 7987 / NCPF 3949 / NRRLY-17841) (Yeast), UniProt B9W6M3); assay: calcineurin pathway inhibitors in yeast reporter, dose response, S. cerevisiae, CDRE-lacZ, luminescence, secondary (AID 2388); assay type: functional, cell-based;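 also: yeast reporter cells carrying a calcineurin-responsive lacZ construct stimulated with calcium chloride; luminescent beta-galactosidase reporter signal in whole cells rather than isolated phosphatase activity; potency for inhibition where a drop in reporter signal means calcineurin blockade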
T1 sequence (B9W6M3 whole entry): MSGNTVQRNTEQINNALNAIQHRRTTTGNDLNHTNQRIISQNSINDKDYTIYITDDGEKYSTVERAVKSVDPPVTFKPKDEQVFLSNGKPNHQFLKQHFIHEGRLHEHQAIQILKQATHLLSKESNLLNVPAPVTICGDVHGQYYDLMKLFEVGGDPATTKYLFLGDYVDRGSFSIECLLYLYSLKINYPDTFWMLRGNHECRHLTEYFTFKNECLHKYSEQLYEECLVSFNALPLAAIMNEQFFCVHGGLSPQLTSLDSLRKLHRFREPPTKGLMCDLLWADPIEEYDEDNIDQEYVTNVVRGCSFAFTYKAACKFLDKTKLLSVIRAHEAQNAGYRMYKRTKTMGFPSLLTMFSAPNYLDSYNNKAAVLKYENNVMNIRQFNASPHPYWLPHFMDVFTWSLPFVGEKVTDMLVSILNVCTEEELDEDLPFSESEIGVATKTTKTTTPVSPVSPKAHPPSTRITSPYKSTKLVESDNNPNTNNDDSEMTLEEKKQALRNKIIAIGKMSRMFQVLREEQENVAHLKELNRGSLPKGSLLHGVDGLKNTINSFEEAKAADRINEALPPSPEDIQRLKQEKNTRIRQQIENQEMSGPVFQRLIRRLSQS

[4] = target: ATP-dependent molecular chaperone HSP82 (Candida albicans (strain WO-1) (Yeast), UniProt C4YTQ8); assay: loss of DOC-induced GRE-beta-galactosidase reporter signal, dose response, Hsp90 inhibitor project, S. cerevisiae, luminescence (AID 2400); assay type: functional, cell-based;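 also: beta-galactosidase luminescence from glucocorticoid response element reporter as proxy for Hsp90 function; inhibitor potency where signal loss means Hsp90 inhibition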
ATP-dependent molecular chaperone HSP82, sequence (C4YTQ8 whole entry): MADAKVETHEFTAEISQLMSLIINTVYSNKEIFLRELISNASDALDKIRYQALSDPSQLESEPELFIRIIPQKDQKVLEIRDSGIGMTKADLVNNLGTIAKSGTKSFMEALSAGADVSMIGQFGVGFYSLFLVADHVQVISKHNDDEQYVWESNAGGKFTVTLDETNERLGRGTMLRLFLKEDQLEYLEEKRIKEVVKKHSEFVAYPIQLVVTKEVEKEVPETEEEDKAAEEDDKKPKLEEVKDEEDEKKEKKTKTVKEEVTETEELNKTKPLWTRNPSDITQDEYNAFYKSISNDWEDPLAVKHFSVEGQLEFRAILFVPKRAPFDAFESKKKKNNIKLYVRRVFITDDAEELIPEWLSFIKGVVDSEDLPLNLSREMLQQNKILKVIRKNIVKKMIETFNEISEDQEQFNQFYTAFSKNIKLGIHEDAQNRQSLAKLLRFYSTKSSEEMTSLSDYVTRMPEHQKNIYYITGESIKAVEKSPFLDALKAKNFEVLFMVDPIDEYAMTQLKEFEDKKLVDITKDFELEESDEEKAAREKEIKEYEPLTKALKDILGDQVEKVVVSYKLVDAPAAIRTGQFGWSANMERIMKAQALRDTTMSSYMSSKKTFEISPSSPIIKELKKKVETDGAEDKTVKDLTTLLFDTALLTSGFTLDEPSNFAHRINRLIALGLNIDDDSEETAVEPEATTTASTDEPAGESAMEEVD

[5] = target: Peroxisome proliferator-activated receptor gamma/Nuclear receptor coactivator 3 (Homo sapiens, UniProt P37231); assay: TR-FRET dose response biochemical High Throughput Screening assay for agonists of the steroid receptor coactivator 3 (SRC-3) recruitment by the peroxisome proliferator-activated receptor gamma (PPAR gamma): non-selective agonists. [Related pubchem assays: 1301 (Confirmation screen.), 1048 (Primary screen.)]; assay type: functional
[6] = target: Peroxisome proliferator-activated receptor gamma/Nuclear receptor coactivator 2 (Homo sapiens, UniProt P37231); assay: (§1) TR-FRET dose response biochemical High Throughput Screening assay for agonists of the steroid receptor coactivator 2 (SRC-2) recruitment by the peroxisome proliferator-activated receptor gamma (PPAR gamma): non-selective agonists. [Related pubchem assays: 1297, 1032 ]; assay type: functional
Peroxisome proliferator-activated receptor gamma/Nuclear receptor coactivator 2, sequence (P37231 whole entry): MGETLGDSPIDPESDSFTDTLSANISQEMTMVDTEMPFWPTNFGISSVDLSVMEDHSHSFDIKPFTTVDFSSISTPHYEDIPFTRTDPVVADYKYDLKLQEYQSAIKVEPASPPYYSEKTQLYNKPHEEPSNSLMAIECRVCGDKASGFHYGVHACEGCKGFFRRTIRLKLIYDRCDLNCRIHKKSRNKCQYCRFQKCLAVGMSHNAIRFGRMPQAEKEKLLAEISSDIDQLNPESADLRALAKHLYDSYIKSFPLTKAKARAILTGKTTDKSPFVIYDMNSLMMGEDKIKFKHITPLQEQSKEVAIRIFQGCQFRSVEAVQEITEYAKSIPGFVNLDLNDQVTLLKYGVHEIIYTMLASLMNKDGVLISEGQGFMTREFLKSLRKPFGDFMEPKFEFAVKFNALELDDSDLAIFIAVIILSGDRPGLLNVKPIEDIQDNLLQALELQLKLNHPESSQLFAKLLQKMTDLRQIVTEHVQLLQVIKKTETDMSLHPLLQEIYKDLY
Peroxisome proliferator-activated receptor gamma/Nuclear receptor coactivator 2, sequence (Q15596 whole entry, further chain): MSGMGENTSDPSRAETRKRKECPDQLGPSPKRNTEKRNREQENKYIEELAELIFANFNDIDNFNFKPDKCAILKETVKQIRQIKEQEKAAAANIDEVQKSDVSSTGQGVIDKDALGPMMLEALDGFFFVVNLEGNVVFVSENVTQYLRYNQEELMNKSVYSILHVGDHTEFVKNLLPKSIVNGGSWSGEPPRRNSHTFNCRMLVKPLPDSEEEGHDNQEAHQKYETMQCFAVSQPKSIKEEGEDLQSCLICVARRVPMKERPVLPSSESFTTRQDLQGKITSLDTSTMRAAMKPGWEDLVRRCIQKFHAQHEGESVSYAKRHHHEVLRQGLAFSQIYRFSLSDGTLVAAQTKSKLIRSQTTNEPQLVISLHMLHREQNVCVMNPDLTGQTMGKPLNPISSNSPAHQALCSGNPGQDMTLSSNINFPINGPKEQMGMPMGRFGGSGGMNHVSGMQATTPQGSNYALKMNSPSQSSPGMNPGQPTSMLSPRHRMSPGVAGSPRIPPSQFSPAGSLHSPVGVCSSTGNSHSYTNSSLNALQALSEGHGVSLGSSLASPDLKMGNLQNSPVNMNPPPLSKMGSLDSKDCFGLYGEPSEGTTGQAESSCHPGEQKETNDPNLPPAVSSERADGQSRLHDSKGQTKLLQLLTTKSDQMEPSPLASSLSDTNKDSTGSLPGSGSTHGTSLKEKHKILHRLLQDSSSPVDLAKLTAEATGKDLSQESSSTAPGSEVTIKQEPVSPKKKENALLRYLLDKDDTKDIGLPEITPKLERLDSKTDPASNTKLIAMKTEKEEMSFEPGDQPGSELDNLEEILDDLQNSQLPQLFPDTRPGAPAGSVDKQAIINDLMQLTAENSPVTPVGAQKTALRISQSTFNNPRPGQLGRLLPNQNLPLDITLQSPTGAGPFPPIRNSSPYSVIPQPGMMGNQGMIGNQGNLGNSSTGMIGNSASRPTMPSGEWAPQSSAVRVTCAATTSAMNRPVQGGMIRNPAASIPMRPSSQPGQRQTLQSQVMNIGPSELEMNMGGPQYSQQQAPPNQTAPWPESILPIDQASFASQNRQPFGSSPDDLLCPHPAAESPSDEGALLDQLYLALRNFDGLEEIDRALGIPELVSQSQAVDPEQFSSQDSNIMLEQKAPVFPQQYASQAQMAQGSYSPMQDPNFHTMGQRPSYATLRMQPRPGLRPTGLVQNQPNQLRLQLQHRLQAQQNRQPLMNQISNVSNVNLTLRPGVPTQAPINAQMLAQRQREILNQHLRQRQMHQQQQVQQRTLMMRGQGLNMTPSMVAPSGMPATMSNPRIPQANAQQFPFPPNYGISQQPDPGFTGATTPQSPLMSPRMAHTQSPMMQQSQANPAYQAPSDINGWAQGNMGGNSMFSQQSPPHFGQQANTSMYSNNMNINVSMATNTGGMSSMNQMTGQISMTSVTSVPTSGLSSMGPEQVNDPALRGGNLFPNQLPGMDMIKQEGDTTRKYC

[7] = target: Peroxisome proliferator-activated receptor gamma/Nuclear receptor coactivator 1 (Homo sapiens, UniProt P37231); assay: as §1, with “1 (SRC-1)” for “2 (SRC-2)”, “assays (depositor defined):AID1300, AID1808, AID504735, AID631]” for “assays: 1297, 1032 ]”; assay type: protein assay
Peroxisome proliferator-activated receptor gamma/Nuclear receptor coactivator 1, sequence (P37231 whole entry): as the sequence (P37231 whole entry) above
Peroxisome proliferator-activated receptor gamma/Nuclear receptor coactivator 1, sequence (Q15788 whole entry, further chain): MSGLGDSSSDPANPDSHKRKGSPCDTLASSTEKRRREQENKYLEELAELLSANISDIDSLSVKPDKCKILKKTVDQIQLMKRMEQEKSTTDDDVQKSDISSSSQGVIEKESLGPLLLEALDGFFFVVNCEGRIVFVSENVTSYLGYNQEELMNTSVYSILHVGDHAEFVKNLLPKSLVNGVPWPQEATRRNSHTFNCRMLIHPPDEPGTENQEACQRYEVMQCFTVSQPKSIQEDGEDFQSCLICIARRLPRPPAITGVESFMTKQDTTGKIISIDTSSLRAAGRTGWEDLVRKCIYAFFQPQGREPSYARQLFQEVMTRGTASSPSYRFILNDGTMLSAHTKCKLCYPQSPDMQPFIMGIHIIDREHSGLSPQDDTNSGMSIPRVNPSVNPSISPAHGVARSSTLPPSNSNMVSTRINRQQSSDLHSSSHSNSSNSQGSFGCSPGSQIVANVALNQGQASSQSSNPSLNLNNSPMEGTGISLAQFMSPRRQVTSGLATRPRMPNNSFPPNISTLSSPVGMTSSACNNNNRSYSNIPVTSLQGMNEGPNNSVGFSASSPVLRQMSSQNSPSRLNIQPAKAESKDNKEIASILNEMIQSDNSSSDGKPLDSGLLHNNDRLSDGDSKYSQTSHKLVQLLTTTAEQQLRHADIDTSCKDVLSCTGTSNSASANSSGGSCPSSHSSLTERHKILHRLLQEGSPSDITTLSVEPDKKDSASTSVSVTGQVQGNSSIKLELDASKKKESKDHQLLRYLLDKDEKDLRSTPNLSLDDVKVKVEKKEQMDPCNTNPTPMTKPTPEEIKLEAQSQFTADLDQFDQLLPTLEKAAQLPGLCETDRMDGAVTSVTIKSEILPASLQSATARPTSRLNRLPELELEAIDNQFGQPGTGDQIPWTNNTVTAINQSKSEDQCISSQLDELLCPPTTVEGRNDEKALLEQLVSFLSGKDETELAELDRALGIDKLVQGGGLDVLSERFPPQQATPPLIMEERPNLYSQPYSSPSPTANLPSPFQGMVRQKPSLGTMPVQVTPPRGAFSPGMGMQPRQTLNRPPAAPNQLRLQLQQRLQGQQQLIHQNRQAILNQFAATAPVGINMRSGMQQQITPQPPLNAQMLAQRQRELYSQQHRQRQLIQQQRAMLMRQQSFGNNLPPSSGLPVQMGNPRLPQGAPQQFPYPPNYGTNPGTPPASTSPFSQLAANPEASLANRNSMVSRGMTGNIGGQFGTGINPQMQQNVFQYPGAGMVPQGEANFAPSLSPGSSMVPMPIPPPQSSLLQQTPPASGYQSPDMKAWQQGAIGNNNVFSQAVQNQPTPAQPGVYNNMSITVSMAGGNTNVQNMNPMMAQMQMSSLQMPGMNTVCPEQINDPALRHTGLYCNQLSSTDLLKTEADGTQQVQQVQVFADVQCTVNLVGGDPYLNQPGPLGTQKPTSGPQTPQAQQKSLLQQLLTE

[8] = target: T2, Mannose-6-phosphate isomerase (Homo sapiens, UniProt P34949); assay: PMI enzyme inhibitors, confirmation, biochemical, fluorescence intensity (AID 1535)
T2 sequence (P34949 whole entry): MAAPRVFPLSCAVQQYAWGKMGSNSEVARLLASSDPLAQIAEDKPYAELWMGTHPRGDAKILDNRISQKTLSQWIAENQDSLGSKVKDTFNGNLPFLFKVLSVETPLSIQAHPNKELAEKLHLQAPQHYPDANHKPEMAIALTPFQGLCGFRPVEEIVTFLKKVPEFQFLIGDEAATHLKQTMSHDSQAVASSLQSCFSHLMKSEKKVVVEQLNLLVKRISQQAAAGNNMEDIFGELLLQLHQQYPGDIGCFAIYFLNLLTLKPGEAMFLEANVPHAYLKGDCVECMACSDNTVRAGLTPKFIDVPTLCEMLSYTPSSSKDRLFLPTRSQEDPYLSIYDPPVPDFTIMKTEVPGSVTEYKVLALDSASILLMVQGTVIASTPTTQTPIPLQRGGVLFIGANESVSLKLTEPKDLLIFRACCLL

Phosphomannomutase 2 = target: T3, Phosphomannomutase 2 (Homo sapiens, UniProt O15305); assay: Counter screen SAR assay for PMM2 inhibitors via a fluorescence intensity assay. [Related pubchem assays (depositor defined):AID1545, AID1574]
T3 sequence (O15305 whole entry): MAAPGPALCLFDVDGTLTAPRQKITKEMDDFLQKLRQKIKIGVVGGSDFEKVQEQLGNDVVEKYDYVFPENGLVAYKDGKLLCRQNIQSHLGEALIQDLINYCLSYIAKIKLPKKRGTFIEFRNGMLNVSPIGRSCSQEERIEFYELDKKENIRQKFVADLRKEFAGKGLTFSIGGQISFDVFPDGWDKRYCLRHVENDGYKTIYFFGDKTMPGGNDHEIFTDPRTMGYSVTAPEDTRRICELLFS

[9] = target: T4, Ubiquitin-conjugating enzyme E2 N (Homo sapiens, UniProt P61088); assay type: functional
T4 sequence (P61088 whole entry): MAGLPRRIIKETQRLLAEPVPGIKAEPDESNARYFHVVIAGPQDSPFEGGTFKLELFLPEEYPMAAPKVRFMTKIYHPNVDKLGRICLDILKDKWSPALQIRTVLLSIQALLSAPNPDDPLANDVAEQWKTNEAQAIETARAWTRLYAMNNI

[10] = target: T4, Ubiquitin-conjugating enzyme E2 N; assay type: functional; remark: listed apart in the source
Bcl-2-related protein A1 = target: T5, Bcl-2-related protein A1 (Mus musculus, UniProt Q07440); assay type: functional;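 also: confirmatory dose–response counterscreen on Bfl-1, used to check hits from a UBC13 polyubiquitin inhibitor campaign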
T5 sequence (Q07440 whole entry): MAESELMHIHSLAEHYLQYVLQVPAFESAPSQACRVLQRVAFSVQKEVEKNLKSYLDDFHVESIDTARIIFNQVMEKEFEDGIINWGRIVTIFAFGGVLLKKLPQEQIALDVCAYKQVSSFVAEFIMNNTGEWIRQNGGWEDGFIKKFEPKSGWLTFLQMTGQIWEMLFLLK

INS1 = assay: beta cell apoptosis inhibitors, cytokine rescue, dose response, luminescence, retest (AID 449756); assay type: functional, cell-based; details: Rattus norvegicus;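 also: cell death triggered by IL-1 beta plus TNF-alpha plus IFN-gamma mixture; protective hits raise ATP signal compared with cytokine alone wells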
[11] = target: T6, Short transient receptor potential channel 4 (Mus musculus, UniProt Q9QUQ5); assay: mouse TRPC4 channel activators, dose response, cell-based, HEK293 TRPC4/mu-opioid, Fluo-4 calcium (AID 434937); assay type: functional
T6 sequence (Q9QUQ5 whole entry): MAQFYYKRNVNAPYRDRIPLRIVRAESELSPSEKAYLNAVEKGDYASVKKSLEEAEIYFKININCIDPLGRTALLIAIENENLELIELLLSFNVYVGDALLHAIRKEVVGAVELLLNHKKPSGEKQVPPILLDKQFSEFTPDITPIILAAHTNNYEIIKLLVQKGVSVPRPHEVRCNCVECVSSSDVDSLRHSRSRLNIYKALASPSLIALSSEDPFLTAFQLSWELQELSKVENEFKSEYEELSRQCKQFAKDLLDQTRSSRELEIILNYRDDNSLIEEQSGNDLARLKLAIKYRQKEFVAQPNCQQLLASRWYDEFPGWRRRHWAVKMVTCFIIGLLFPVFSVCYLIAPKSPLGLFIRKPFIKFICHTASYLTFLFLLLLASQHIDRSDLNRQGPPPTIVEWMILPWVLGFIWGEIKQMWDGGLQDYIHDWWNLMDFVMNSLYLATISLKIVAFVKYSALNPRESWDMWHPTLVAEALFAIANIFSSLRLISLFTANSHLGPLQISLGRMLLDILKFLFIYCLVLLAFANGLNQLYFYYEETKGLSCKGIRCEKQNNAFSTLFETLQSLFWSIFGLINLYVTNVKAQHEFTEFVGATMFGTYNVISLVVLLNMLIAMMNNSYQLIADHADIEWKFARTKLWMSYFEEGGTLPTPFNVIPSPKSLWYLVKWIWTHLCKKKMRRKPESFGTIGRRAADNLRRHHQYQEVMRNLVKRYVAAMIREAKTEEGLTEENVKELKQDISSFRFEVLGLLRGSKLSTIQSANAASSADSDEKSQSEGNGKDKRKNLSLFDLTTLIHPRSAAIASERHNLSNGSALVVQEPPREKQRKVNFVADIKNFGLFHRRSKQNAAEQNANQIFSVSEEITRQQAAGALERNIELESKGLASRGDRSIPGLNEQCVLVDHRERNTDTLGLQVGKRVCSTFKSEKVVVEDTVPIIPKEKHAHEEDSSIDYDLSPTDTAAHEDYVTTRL

[12] = target: T7, Heat shock factor protein 1 (Mus musculus, UniProt P38532); assay: inhibition of MG132-induced HSE-luciferase signal, confirmation, cell-based, NIH3T3, luminescence, dose retest (AID 2382); assay type: functional;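 also: NIH3T3 fibroblasts with HSF1-driven luciferase reporter stressed by proteasome inhibitor MG132; luminescence from HSF1-driven luciferase expression after 8 hours of MG132 stress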
T7 sequence (P38532 whole entry): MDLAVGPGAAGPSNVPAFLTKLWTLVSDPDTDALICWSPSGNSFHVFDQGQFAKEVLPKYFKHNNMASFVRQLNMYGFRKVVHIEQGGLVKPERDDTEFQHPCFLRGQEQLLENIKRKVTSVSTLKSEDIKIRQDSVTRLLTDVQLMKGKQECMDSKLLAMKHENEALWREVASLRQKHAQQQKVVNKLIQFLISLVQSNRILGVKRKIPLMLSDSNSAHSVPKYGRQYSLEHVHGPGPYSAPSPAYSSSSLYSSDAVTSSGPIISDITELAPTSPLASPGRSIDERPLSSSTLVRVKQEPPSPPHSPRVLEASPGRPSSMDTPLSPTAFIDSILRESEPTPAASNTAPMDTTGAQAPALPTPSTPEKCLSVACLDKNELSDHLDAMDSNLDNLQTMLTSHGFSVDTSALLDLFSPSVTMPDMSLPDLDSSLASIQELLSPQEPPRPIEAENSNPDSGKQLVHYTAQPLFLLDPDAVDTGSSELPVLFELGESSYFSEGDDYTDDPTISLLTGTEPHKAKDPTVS

Structure (SMILES) | EC50 [5] | EC50 [6] | EC50 [7] | IC50 [9] | IC50 [10] | IC50 (Bcl-2-related protein A1) | further results
O=[N+]([O-])c1ccc(O)c(P(=O)(c2ccccc2)c2ccccc2)c1 | – | – | – | – | – | – | EC50 [1]: 0.698 µM (active); EC50 [2]: > 150 µM (inactive); EC50 [3]: > 180 µM (inactive); EC50 [4]: > 150 µM (inactive)
NC(=O)CSc1ncnc2c1oc1ccccc12 | > 79.4 µM (not active) | > 26.5 µM (not active) | 27.6 µM (inactive) | – | – | – | –
CC(C)OC(=O)CNc1nnc(S)nc1O | 21.7 µM (not active) | 2.47 µM (active) | 2.28 µM (active) | – | – | – | –
Cc1ccncc1/N=c1\ssnc1Cl | – | – | – | – | – | – | IC50 [8]: 34 µM (active); IC50 (Phosphomannomutase 2): > 100 µM (inactive)
O=C(NCC1CCN(Cc2cccc(Cl)c2)CC1)C1CCCN(c2ncnc3c2nc2n3CCCCC2)C1 (stereo not given) | – | – | – | 3.87 µM (active) | 1.89 µM (active) | > 20 µM (inactive) | –
CCSc1nnc(-c2ccccc2SC)o1 | > 79.4 µM (not active) | 237 µM (not active) | > 79.4 µM (inactive) | – | – | – | –
CN(C)CCCN(C(=O)c1ccc(S(=O)(=O)N(C)Cc2ccccc2)cc1)c1nc2cc3c(cc2s1)OCO3 | – | – | – | 11.5 µM (active) | 5.54 µM (active) | > 20 µM (inactive) | AC50 (INS1): > 120 µM (inactive); EC50 [11]: 9.44 µM (active)
CCCC(C(=O)NC(C)(C)C)N(C(=O)c1snc(C(N)=O)c1N)c1ccc2c(c1)OCCO2 (stereo not given) | – | – | – | 8.3 µM (active) | 10.2 µM (active) | > 20 µM (inactive) | EC50 [12]: 1.58 µM (active)
Fc1ccc(-c2nnsc2Sc2ccccn2)cc1 | 16.1 µM (not active) | 11.8 µM (not active) | 8.31 µM (active) | – | – | – | –

From ChEMBL document CHEMBL1201862, “PubChem BioAssay data set” (2004)
